Test results reported in US20050277627A1, “Colchinol derivatives as vascular damaging agents” (priority 2000, published 2005).

Legend:
[1] = tested on: Hras5 tumours (NIH 3T3 fibroblasts transfected with Harvey ras, clone 5) in nude mice; assay: Hras5 necrosis model; type: in vivo; details: 25 mg/kg; single dose, culled 24 hours after dosing; male nude mice
Method: NIH 3T3 fibroblasts transfected with Harvey ras, clone 5, (Hras5 cells) were kept in continual passage in Dulbecco's modifed Eagles medium (DMEM) containing 10% foetal bovine serum (FBS) and 1% glutamine, at 37° C. in a humidified incubator gassed with 7.5% carbon dioxide and 92.5% […]. Cells were implanted subcutaneously into the left flank of male nude mice (8-10 weeks of age) at an inoculum of 2×10^5 cells/mouse. Tumours were measured using calipers and randomised into groups of 2-4 mice between days 9-14 after implant. Mice were dosed with compounds, either intravenously or intraperitoneally, once on day of randomisation and culled 24 hours after dosing. Compounds were dissolved in 20% hydroxypropyl beta cyclodextrin in physiological saline at pH 7 and dosed in a volume of 0.1 ml per 10 g body weight. Tumours were excised, weighed and placed in buffered formalin. Area of necrosis in individual tumours was assessed from a haematoxylin/eosin stained-slide by a pathologist and scored from 0, meaning no significant change, to 10, meaning 91-100% necrosis. The activity of examples 5 and 7 (described hereinafter) against tumour vasculature was measured by the fluorescent dye method described hereinabove. Example 1 scored 6.6 at 25 mg/kg.

mammalian tubulin = details: O. Boye et al Med. Chem. Res., 1991, 1, 142-150; read-out: IC50 in a tubulin polymerisation assay; cited from earlier work
[2] = tested on: tumour vasculature in CaNT tumour-bearing mice; assay: Activity against tumour vasculature measured by fluorescent dye (Hoechst 33342); type: in vivo; details: 50 mg/kg intraperitoneally, dye injected 24 hours after drug treatment
Method: (b) Activity Against Tumour Vasculature Measured by Fluorescent Dye
Tumour functional vascular volume in CaNT tumour-bearing mice was measured using the fluorescent dye Hoechst 33342 according to the method of Smith et al (Brit. Jnl. Cancer 1988, 57, 247-253). Five animals were used in control and treated groups. The fluorescent dye was dissolved in saline at 6.25 mg/ml and injected intravenously at 10 mg/kg 24 hours after intraperitoneal drug treatment. One minute later, animals were killed and tumours excised and frozen; 10 μm sections were cut at 3 different levels and observed under UV illumination using an Olympus microscope equipped with epifluorescence. Blood vessels were identified by their fluorescent outlines and vascular volume was quantified using a point scoring system based on that described by Chalkley, (Jnl. Natl. Cancer Inst., 1943, 4, 47-53). All estimates were based on counting a minimum of 100 fields from sections cut at the 3 different levels.

| SMILES | necrosis score (0 = no significant change, 10 = 91-100% necrosis) [1] | IC50 (mammalian tubulin) [µM] | decrease in perfused vascular volume relative to control [2] [%] |
| --- | --- | --- | --- |
| COc1cc2c(c(OC)c1OC)-c1ccc(OC(=O)CCCC(=O)N3CCN(C(C)=O)CC3)cc1[C@@H](NC(C)=O)CC2 [Example 1, (5S)-5-Acetylamino-9,10,11-trimethoxy-6,7-dihydro-5H-dibenzo[a,c]cyclohepten-3-yl 5-(4-acetylpiperazin-1-yl)-5-oxopentanoate] | 6.6 | – | – |
| COc1cc2c(c(OC)c1OC)-c1ccc(N)cc1C(NC(C)=O)CC2 (stereo not drawn) [N-[3-amino-9,10,11-trimethoxy-6,7-dihydro-5H-dibenzo[a,c]cyclohepten-5-yl]acetamide] | – | 58 | 88 |
